Assay results taken from ChEMBL document CHEMBL5038618, “Discovery of PT-65 as a highly potent and selective Proteolysis-targeting chimera degrader of GSK3 for treating Alzheimer's disease” (Eur J Med Chem, 2021).

Assays:
[1] = target: T1, Protein cereblon/Glycogen synthase kinase-3 beta (Homo sapiens, UniProt P49841+Q96SW2); test: Protac activity at CRBN/GSK3beta in human SH-SY5Y cells assessed as induction of GSK3beta degradation at 1 uM measured after 24 hrs; assay type: cell-based
Target sequence in this assay (P49841 whole entry, looked up): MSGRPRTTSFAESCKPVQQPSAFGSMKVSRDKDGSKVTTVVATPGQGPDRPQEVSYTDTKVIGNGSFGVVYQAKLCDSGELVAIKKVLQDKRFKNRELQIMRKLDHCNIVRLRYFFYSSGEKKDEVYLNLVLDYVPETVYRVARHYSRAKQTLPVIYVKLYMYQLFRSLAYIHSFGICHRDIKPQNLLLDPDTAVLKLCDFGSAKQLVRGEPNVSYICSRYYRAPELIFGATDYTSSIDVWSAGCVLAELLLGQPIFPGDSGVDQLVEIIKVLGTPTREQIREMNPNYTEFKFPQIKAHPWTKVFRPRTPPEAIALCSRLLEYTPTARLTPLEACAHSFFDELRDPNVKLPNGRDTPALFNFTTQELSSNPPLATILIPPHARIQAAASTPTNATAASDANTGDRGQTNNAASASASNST
Target sequence in this assay (Q96SW2 whole entry, looked up): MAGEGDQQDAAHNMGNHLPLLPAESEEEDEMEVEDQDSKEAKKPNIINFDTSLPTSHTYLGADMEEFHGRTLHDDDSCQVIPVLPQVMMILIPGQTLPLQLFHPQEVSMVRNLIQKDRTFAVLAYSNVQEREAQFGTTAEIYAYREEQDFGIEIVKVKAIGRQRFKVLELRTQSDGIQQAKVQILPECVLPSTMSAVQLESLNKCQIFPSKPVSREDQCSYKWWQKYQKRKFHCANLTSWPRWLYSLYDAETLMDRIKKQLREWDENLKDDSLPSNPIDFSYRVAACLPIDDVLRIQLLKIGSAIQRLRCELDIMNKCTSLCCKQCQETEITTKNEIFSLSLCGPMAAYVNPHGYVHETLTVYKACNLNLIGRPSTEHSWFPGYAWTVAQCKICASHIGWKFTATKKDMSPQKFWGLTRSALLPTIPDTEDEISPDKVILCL

[2] = target: T2, Protein cereblon/Glycogen synthase kinase-3 alpha (Homo sapiens, UniProt P49840+Q96SW2); test: Protac activity at CRBN/GSK3alpha in human SH-SY5Y cells assessed as induction of GSK3alpha protein degradation at 1 uM measured after 24 hrs; assay type: cell-based
Target sequence in this assay (P49840 2-483 limits assumed): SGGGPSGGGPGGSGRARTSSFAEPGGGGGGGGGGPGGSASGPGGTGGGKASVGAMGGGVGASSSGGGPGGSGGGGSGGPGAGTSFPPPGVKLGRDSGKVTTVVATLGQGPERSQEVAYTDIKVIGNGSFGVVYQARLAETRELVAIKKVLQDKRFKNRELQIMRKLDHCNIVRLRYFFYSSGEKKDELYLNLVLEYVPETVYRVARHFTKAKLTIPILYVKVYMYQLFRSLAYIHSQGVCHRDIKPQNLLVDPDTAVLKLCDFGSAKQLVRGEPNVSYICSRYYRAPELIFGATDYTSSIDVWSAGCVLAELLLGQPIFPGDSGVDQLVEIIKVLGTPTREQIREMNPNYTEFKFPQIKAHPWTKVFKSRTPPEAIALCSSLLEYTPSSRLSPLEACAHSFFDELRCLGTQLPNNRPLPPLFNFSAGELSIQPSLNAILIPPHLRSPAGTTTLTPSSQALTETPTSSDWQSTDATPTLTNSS
Target sequence in this assay (Q96SW2 whole entry partner): as the sequence (Q96SW2 whole entry, looked up) above

[3] = target: T2, Protein cereblon/Glycogen synthase kinase-3 alpha; test: Protac activity at CRBN/GSK3alpha in human SH-SY5Y cells assessed as induction of GSK3alpha protein degradation measured after 24 hrs; assay type: cell-based
Target sequence in this assay (P49840 whole entry): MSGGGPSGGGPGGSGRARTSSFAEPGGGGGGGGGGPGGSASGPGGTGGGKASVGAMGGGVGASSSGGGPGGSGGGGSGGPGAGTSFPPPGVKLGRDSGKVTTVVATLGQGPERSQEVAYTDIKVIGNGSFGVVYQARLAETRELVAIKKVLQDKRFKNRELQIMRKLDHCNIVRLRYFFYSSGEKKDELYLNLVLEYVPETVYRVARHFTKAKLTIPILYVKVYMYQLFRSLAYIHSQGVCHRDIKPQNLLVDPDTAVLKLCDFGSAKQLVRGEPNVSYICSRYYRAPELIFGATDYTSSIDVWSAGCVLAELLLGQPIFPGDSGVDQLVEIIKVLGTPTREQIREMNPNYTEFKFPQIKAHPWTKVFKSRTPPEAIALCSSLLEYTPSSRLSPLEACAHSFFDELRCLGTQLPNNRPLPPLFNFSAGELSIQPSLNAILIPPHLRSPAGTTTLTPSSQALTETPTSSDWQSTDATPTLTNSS
Target sequence in this assay (Q96SW2 whole entry): as the sequence (Q96SW2 whole entry, looked up) above

[4] = target: T1, Protein cereblon/Glycogen synthase kinase-3 beta; test: Protac activity at CRBN/GSK3beta in human SH-SY5Y cells assessed as induction of GSK3beta degradation measured after 24 hrs; assay type: cell-based
Target sequence in this assay (P49841 whole entry): as the sequence (P49841 whole entry, looked up) above
Target sequence in this assay (Q96SW2 whole entry): as the sequence (Q96SW2 whole entry, looked up) above

[5] = target: T2, Protein cereblon/Glycogen synthase kinase-3 alpha; test: Protac activity at CRBN/GSK3alpha in human SH-SY5Y cells assessed as induction of GSK3alpha degradation at 0.1 uM measured after 24 hrs; assay type: cell-based
Target sequence in this assay (P49840 2-483 limits assumed): as the sequence (P49840 2-483 limits assumed) above
Target sequence in this assay (Q96SW2 whole entry partner): as the sequence (Q96SW2 whole entry, looked up) above

[6] = target: T1, Protein cereblon/Glycogen synthase kinase-3 beta; test: Protac activity at CRBN/GSK3beta in human SH-SY5Y cells assessed as induction of GSK3beta degradation at 0.1 uM measured after 24 hrs; assay type: cell-based
Target sequence in this assay (P49841 whole entry, looked up): as the sequence (P49841 whole entry, looked up) above
Target sequence in this assay (Q96SW2 whole entry, looked up): as the sequence (Q96SW2 whole entry, looked up) above

[7] = target: T1, Protein cereblon/Glycogen synthase kinase-3 beta; test: Protac activity at CRBN/GSK3beta in human SH-SY5Y cells assessed as induction of GSK3beta degradation at 10 uM measured after 24 hrs; assay type: cell-based
Target sequence in this assay (P49841 whole entry, looked up): as the sequence (P49841 whole entry, looked up) above
Target sequence in this assay (Q96SW2 whole entry, looked up): as the sequence (Q96SW2 whole entry, looked up) above

[8] = target: T2, Protein cereblon/Glycogen synthase kinase-3 alpha; test: Protac activity at CRBN/GSK3alpha in human SH-SY5Y cells assessed as induction of GSK3alpha protein degradation at 10 uM measured after 24 hrs; assay type: cell-based
Target sequence in this assay (P49840 2-483 limits assumed): as the sequence (P49840 2-483 limits assumed) above
Target sequence in this assay (Q96SW2 whole entry partner): as the sequence (Q96SW2 whole entry, looked up) above

[9] = system: SH-SY5Y; test: Induction of apoptosis in human SH-SY5Y cells assessed as necrotic cells at 10 uM preincubated for 2 hrs followed by coincubation with Abeta42 and measured after 72 hrs by Annexin V-FITC/propidium iodide staining based flow cytometry (Rvb=0.7%); assay type: functional; details: time 74 hrs
[10] = system: SH-SY5Y; test: Induction of apoptosis in human SH-SY5Y cells assessed as late apoptotic cells at 10 uM preincubated for 2 hrs followed by coincubation with Abeta42 and measured after 72 hrs by Annexin V-FITC/propidium iodide staining based flow cytometry (Rvb=3.5%); assay type: functional; details: time 74 hrs
[11] = system: SH-SY5Y; test: Induction of apoptosis in human SH-SY5Y cells assessed as live cells at 10 uM preincubated for 2 hrs followed by coincubation with Abeta42 and measured after 72 hrs by Annexin V-FITC/propidium iodide staining based flow cytometry (Rvb=94.8%); assay type: functional; details: time 74 hrs
[12] = system: SH-SY5Y; test: Induction of apoptosis in human SH-SY5Y cells assessed as early apoptotic cells at 10 uM preincubated for 2 hrs followed by coincubation with Abeta42 and measured after 72 hrs by Annexin V-FITC/propidium iodide staining based flow cytometry (Rvb=1%); assay type: functional; details: time 74 hrs

Row | Activity [1] | Activity [2] | Activity [5] | Activity [6] | Compound | other results
1 | 84.4% | 90.3% | 68.5% | 63.7% | Nc1ncc(-c2ccc(S(=O)(=O)N3CCN(CCCCc4cn(CCOCCOCCOCCOCCNc5cccc6c5C(=O)N(C5CCC(=O)NC5=O)C6=O)nn4)CC3)cc2)nc1C(=O)Nc1cccnc1 (stereo not given) | DC50 [3]: 0.0382 µM; DC50 [4]: 0.11 µM
2 | 56.5% | 55.6% | – | – | COc1ccc(-c2ocnc2C(=O)NCCCc2cn(CCOCCOCCOCCOCCOCCNc3cccc4c3C(=O)N(C3CCC(=O)NC3=O)C4=O)nn2)cc1I (stereo not given) | –
3 | 61.3% | 75.4% | 29.7% | 15.2% | Nc1ncc(-c2ccc(S(=O)(=O)N3CCN(Cc4cn(CCOCCOCCOCCOCCOCCOCCNc5cccc6c5C(=O)N(C5CCC(=O)NC5=O)C6=O)nn4)CC3)cc2)nc1C(=O)Nc1cccnc1 (stereo not given) | –
4 | 50.1% | 25.2% | – | – | COc1ccc(-c2ocnc2C(=O)NCCCc2cn(CCOCCOCCOCCOCCOCCOCCNc3cccc4c3C(=O)N(C3CCC(=O)NC3=O)C4=O)nn2)cc1I (stereo not given) | –
5 | 81.3% | 87.8% | 68.1% | 61.6% | Nc1ncc(-c2ccc(S(=O)(=O)N3CCN(CCc4cn(CCOCCOCCOCCOCCOCCNc5cccc6c5C(=O)N(C5CCC(=O)NC5=O)C6=O)nn4)CC3)cc2)nc1C(=O)Nc1cccnc1 (stereo not given) | –
6 | 86% | 93.9% | 66.3% | 55.9% | Nc1ncc(-c2ccc(S(=O)(=O)N3CCN(CCc4cn(CCOCCOCCOCCOCCOCCOCCNc5cccc6c5C(=O)N(C5CCC(=O)NC5=O)C6=O)nn4)CC3)cc2)nc1C(=O)Nc1cccnc1 (stereo not given) | –
7 | 88.8% | 60.7% | – | – | COc1ccc(-c2ocnc2C(=O)NCCCc2cn(CCOCCOCCOCCOCCOCCOCCNc3cccc4c3C(=O)N(C3CCC(=O)NC3=O)C4=O)nn2)cc1Cl (stereo not given) | –
8 | 79.1% | 90.7% | 65% | 51.6% | Nc1ncc(-c2ccc(S(=O)(=O)N3CCN(CCc4cn(CCOCCOCCOCCNc5cccc6c5C(=O)N(C5CCC(=O)NC5=O)C6=O)nn4)CC3)cc2)nc1C(=O)Nc1cccnc1 (stereo not given) | –
9 | 54.6% | 56.2% | – | – | COc1ccc(-c2ocnc2C(=O)NCCCc2cn(CCOCCOCCOCCOCCOCCNc3cccc4c3C(=O)N(C3CCC(=O)NC3=O)C4=O)nn2)cc1Cl (stereo not given) | Activity [7]: 85.2%; Activity [8]: 84.6%
10 | 88.3% | 95.1% | 70.9% | 38.2% | Nc1ncc(-c2ccc(S(=O)(=O)N3CCN(CCCCc4cn(CCOCCOCCNc5cccc6c5C(=O)N(C5CCC(=O)NC5=O)C6=O)nn4)CC3)cc2)nc1C(=O)Nc1cccnc1 (stereo not given) | –
11 | 14.5% | 38.7% | – | – | COc1ccc(-c2ocnc2C(=O)NCCCn2cc(COCCOCCOCCOc3cccc4c3CN(C3CCC(=O)NC3=O)C4=O)nn2)cc1Cl (stereo not given) | Activity [7]: 37.3%; Activity [8]: 76.4%
12 | < 5% | < 5% | – | – | COc1ccc(-c2ocnc2C(=O)NCCCn2cc(COCCOCCOCCOCC(=O)N[C@@H](C(=O)N3C[C@H](O)C[C@H]3C(=O)NCc3ccc(-c4scnc4C)cc3)C(C)(C)C)nn2)cc1Cl | Activity [7]: < 5%; Activity [8]: < 5%
13 | 63.8% | 77.2% | 47.4% | 28.9% | Nc1ncc(-c2ccc(S(=O)(=O)N3CCN(Cc4cn(CCOCCOCCOCCOCCOCCNc5cccc6c5C(=O)N(C5CCC(=O)NC5=O)C6=O)nn4)CC3)cc2)nc1C(=O)Nc1cccnc1 (stereo not given) | Activity [7]: 74.5%; Activity [8]: 65.9%
14 | 87% | 91.4% | 71.9% | 56.7% | Nc1ncc(-c2ccc(S(=O)(=O)N3CCN(CCCCc4cn(CCOCCOCCOCCOCCOCCOCCNc5cccc6c5C(=O)N(C5CCC(=O)NC5=O)C6=O)nn4)CC3)cc2)nc1C(=O)Nc1cccnc1 (stereo not given) | DC50 [3]: 0.0404 µM; DC50 [4]: 0.0666 µM
15 | 22.8% | 60.9% | – | – | COc1ccc(-c2ocnc2C(=O)NCCCc2cn(CCOCCOCCOCCNc3cccc4c3C(=O)N(C3CCC(=O)NC3=O)C4=O)nn2)cc1I (stereo not given) | –
16 | 83.1% | 91.8% | 63.8% | 55.9% | Nc1ncc(-c2ccc(S(=O)(=O)N3CCN(CCc4cn(CCOCCOCCOCCOCCNc5cccc6c5C(=O)N(C5CCC(=O)NC5=O)C6=O)nn4)CC3)cc2)nc1C(=O)Nc1cccnc1 (stereo not given) | –
17 | 28.2% | 43.8% | – | – | COc1ccc(-c2ocnc2C(=O)NCCCc2cn(CCOCCOCCNc3cccc4c3C(=O)N(C3CCC(=O)NC3=O)C4=O)nn2)cc1Cl (stereo not given) | –
18 | 36.8% | 62.4% | – | – | COc1ccc(-c2ocnc2C(=O)NCCCc2cn(CCOCCOCCOCCNc3cccc4c3C(=O)N(C3CCC(=O)NC3=O)C4=O)nn2)cc1Cl (stereo not given) | Activity [7]: 73.3%; Activity [8]: 89.9%
19 | 79.5% | 95.2% | 61.1% | 41.9% | Nc1ncc(-c2ccc(S(=O)(=O)N3CCN(CCc4cn(CCOCCOCCNc5cccc6c5C(=O)N(C5CCC(=O)NC5=O)C6=O)nn4)CC3)cc2)nc1C(=O)Nc1cccnc1 (stereo not given) | –
20 | – | – | – | – | Cn1sc(=O)n(Cc2ccccc2)c1=O | Activity [9]: 1.1%; Activity [10]: 5.3%; Activity [11]: 92.4%; Activity [12]: 1.3%
21 | 25.5% | 46.1% | – | – | COc1ccc(-c2ocnc2C(=O)NCCCc2cn(CCOCCOCCNc3cccc4c3C(=O)N(C3CCC(=O)NC3=O)C4=O)nn2)cc1I (stereo not given) | –
22 | 65% | 79.5% | 42% | 25.7% | Nc1ncc(-c2ccc(S(=O)(=O)N3CCN(Cc4cn(CCOCCOCCOCCOCCNc5cccc6c5C(=O)N(C5CCC(=O)NC5=O)C6=O)nn4)CC3)cc2)nc1C(=O)Nc1cccnc1 (stereo not given) | –
23 | 25.9% | 46.5% | – | – | COc1ccc(-c2ocnc2C(=O)NCCCc2cn(CCOCCOCCOCCOCCNc3cccc4c3C(=O)N(C3CCC(=O)NC3=O)C4=O)nn2)cc1I (stereo not given) | –
24 | 89.7% | 93.8% | 69.3% | 54.6% | Nc1ncc(-c2ccc(S(=O)(=O)N3CCN(CCCCc4cn(CCOCCOCCOCCNc5cccc6c5C(=O)N(C5CCC(=O)NC5=O)C6=O)nn4)CC3)cc2)nc1C(=O)Nc1cccnc1 (stereo not given) | –
25 | 39.6% | 68.9% | 46.9% | 30.5% | Nc1ncc(-c2ccc(S(=O)(=O)N3CCN(Cc4cn(CCOCCOCCNc5cccc6c5C(=O)N(C5CCC(=O)NC5=O)C6=O)nn4)CC3)cc2)nc1C(=O)Nc1cccnc1 (stereo not given) | –
26 | < 5% | < 5% | – | – | COc1ccc(-c2ocnc2C(=O)NCCCc2cn(CCOCCOCCOCCNC(=O)CNc3cccc4c3CN(C3CCC(=O)NC3=O)C4=O)nn2)cc1Cl (stereo not given) | Activity [7]: 35.8%; Activity [8]: < 5%
27 | 49.2% | 69.5% | – | – | COc1ccc(-c2ocnc2C(=O)NCCCc2cn(CCOCCOCCOCCOCCNc3cccc4c3C(=O)N(C3CCC(=O)NC3=O)C4=O)nn2)cc1Cl (stereo not given) | –
28 | < 5% | < 5% | – | – | COc1ccc(-c2ocnc2C(=O)NCCCn2cc(CCCCC(=O)N[C@@H](C(=O)N3C[C@H](O)C[C@H]3C(=O)NCc3ccc(-c4scnc4C)cc3)C(C)(C)C)nn2)cc1Cl | Activity [7]: < 5%; Activity [8]: < 5%
29 | 46.6% | 75.6% | 45.4% | 29.9% | Nc1ncc(-c2ccc(S(=O)(=O)N3CCN(Cc4cn(CCOCCOCCOCCNc5cccc6c5C(=O)N(C5CCC(=O)NC5=O)C6=O)nn4)CC3)cc2)nc1C(=O)Nc1cccnc1 (stereo not given) | Activity [7]: 80.2%; Activity [8]: 86.4%
30 | < 5% | < 5% | – | – | Nc1ncc(-c2ccc(S(=O)(=O)N3CCN(Cc4cn(CCOCCOCCOCCNC(=O)CNc5cccc6c5CN(C5CCC(=O)NC5=O)C6=O)nn4)CC3)cc2)nc1C(=O)Nc1cccnc1 (stereo not given) | –
